Assay results taken from ChEMBL document CHEMBL1201862, “PubChem BioAssay data set” (2004).
The source made the active and inactive calls.

Experiments:
Streptococcus = assay: GAS UMAA2166 growth inhibition – luminescence, BacTiterGlo, counter-screen for streptokinase expression inhibitor project, dose response (AID 1915); assay type: functional, organism-based;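 note: potency for reduction of bacterial viability or growth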
[1] = blockers of HIV-1 ZM109 envelope-driven cell-cell fusion – HeLa effector, CEM target cells, luciferase, cherry-pick, dose response (AID 652058); assay type: functional, cell-based;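 note: luciferase signal from HIV-1 Env mediated cell-cell fusion of effector and target cells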
[2] = general mammalian cell viability loss – activator set, cherry-pick, cytotoxicity control for miR-122 modulator project, dose response (AID 720690); assay type: functional, cell-based;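 note: HEK293T human cells scored for general mammalian cytotoxicity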
HEK293 [3] = assay: cells; assay type: functional, cell-based; settings: Homo sapiens
[4] = activation of miR-122 Renilla sensor silencing – cell-based, Huh7 psiCHECK-miR122, Renilla luciferase, cherry-picked, dose response (AID 651956); assay type: functional;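 note: huh7 hepatoma cells stably carrying a psiCHECK-2 miR-122 sensor plasmid; renilla luciferase signal reporting endogenous miR-122 activity after 48 h compound exposure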
[5] = general mammalian cell viability loss – inhibitor set, cherry-pick, set 2, cytotoxicity control for miR-122 modulator project, dose response (AID 720697); assay type: functional, cell-based
[6] = off-target signal loss in HeLa-CEM21 co-culture – HeLa F-luc CTL cells, cherry-picked, counter-screen for HIV-1 Env fusion inhibitor project, dose response (AID 652040); assay type: functional, cell-based;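 note: potency for signal decrease marking cytotoxic or nonspecific inhibition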
Streptokinase A = target: T1, Streptokinase A (Streptococcus pyogenes serotype M1, UniProt P10520); assay: viability-normalized secreted streptokinase activity reduction – plasminogen activation absorbance, OD405, dose response (AID 1914); assay type: functional, Streptococcus pyogenes M1 GAS;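 note: secreted streptokinase activity via plasminogen activation per viability signal from cell pellet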
T1 sequence (P10520 whole entry): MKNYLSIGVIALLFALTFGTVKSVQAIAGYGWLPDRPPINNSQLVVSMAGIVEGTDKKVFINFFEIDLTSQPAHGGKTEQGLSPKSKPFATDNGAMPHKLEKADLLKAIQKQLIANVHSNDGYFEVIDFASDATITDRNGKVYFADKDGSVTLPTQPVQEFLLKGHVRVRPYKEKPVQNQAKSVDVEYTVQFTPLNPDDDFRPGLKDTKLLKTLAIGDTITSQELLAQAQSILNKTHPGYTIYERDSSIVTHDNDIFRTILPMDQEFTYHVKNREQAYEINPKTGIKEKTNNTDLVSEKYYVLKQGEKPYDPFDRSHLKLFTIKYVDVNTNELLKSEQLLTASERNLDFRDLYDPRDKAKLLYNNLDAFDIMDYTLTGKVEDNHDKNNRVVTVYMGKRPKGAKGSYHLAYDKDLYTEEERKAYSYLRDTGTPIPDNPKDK

[7] = blockers of HIV-1 envelope-mediated cell-cell fusion – cherry-pick, dose response (AID 652057); assay type: functional, cell-based
INS1 = assay: INS-1E survival protection against cytokine death – cell-based, luminescence, retest, dose response (AID 449756); assay type: functional; settings: Rattus norvegicus;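 note: cell death triggered by IL-1 beta plus TNF-alpha plus IFN-gamma mixture; protective hits raise ATP signal compared with cytokine alone wells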
HEK293 [8] = assay: inhibition of NOD1-driven NF-kB reporter – cell-based, luminescence, uHTS, primary screen (AID 1578); assay type: functional; settings: Homo sapiens
HEK293 [9] = assay: NOD2 signaling inhibitors in MDP-stimulated cells, cell-based, uHTS, luminescence (AID 2001); assay type: functional; settings: Homo sapiens
HEK293 [10] = assay: cells; assay type: functional, cell-based; settings: Homo sapiens; remark: listed apart in the source
[11] = HIV-1 AD8 envelope cell-cell fusion blockers – cherry-pick, dose response (AID 652062); assay type: functional, cell-based;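 note: luciferase signal from cell-cell fusion driven by HIV-1 clade B AD8 Env; potency is for inhibitors of fusion seen as a drop in luminescence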
[12] = viability loss in CEM21 cells – cell-based, CellTiter-Glo luminescence, cherry-picked, cytotoxicity control for viral fusion inhibitor project, dose response (AID 652042); assay type: functional;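 note: potency for signal decrease meaning cytotoxicity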
[13] = test system: Streptococcus sp. 'group A'; assay: Streptococcus pyogenes SK(-)GAS viability under kanamycin – luminescence, BacTiterGlo, confirmation, counter-screen for streptokinase expression inhibitor project, dose response (AID 1900); assay type: functional, organism-based; settings: read-out: EC50
[14] = toxicity to human hepatoma HepG2 cells – cell-based, cherry-picked samples, cytotoxicity control, dose response (AID 1159577); assay type: functional
[15] = P. falciparum Dd2 growth inhibitors, dose response, SYBR Green, cherry-picked samples (AID 1159567); assay type: functional, cell-based
[16] = Counterscreen for activators of the function of SWI/SNF related, matrix associated, actin dependent regulator of chromatin, subfamily a, member 2 (SMARCA2, BRM): Luminescence-based cell-based high throughput dose response assay to identify non-selective compounds using the VP16 reporter assay.; assay type: functional
[17] = target: SWI/SNF-related matrix-associated actin-dependent regulator of chromatin subfamily A member 2 (Homo sapiens, UniProt P51531); assay: Luminescence-based cell-based high throughput dose response assay to identify activators of the function of SWI/SNF related, matrix associated, actin dependent regulator of chromatin, subfamily a, member 2 (SMARCA2, BRM).; assay type: functional
[18] = target: T2, Long-chain-fatty-acid--AMP ligase FadD28 (Mycobacterium tuberculosis, UniProt P9WQ59); assay: Fluorescence polarization aasay to screen for inhibitors that compete for the binding of FadD28 to a bisubstrate Measured in Biochemical System Using Plate Reader - 2147-01_Inhibitor_Dose_CherryPick_Activity.; assay type: functional, Mycobacterium tuberculosis H37Rv
T2 sequence (P9WQ59 whole entry): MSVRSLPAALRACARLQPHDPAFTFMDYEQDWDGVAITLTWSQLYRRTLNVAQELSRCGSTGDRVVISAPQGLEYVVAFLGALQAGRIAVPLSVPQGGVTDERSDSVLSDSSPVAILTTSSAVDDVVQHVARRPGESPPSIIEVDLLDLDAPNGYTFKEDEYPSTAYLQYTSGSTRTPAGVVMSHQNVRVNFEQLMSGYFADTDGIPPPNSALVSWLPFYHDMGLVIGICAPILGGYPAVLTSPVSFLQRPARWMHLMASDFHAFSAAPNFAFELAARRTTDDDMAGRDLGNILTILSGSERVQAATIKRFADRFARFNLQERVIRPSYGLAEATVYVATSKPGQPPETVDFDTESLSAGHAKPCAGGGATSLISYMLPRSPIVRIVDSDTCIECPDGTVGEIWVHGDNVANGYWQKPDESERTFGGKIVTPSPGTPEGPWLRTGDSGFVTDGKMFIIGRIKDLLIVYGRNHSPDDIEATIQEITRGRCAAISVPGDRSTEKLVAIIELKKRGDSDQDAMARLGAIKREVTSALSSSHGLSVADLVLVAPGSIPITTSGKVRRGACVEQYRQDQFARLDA

cells = assay type: functional, cell-based
[19] = target: T3, Nuclear receptor subfamily 0 group B member 1 (Homo sapiens, UniProt P51843); assay type: functional, cell-based;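 note: HEK293T cells transfected with SF-1 and DAX-1 plus StAR promoter luciferase reporter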
T3 sequence (P51843 whole entry): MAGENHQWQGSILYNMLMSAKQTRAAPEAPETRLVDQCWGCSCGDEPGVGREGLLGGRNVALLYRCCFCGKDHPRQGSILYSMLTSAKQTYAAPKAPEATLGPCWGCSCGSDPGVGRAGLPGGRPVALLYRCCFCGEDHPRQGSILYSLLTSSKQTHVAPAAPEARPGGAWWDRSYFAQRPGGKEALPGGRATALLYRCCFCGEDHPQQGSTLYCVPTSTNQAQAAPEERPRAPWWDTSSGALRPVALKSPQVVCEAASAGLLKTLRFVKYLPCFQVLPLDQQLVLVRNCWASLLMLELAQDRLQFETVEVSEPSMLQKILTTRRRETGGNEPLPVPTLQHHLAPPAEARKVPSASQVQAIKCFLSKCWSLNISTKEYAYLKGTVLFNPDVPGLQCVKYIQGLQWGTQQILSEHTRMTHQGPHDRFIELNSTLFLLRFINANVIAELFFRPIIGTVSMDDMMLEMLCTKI

Albumin = Albumin (Bos taurus, UniProt P02769); assay: Counterscreen for inhibitors of T-cell receptor (TCR)-CD3 interaction: Fluorescence-based biochemical high throughput dose response assay to identify inhibitors of T-cell receptor (TCR)-CD3 interaction using a TAMRA-labeled BSA probe.; assay type: functional
[20] = NIH-3T3 fibroblast cytotoxicity, dose response, cytotoxicity control, cell-based, fluorescence, Alamar Blue, secondary assay (AID 2327); assay type: functional;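 note: NIH-3T3 mouse fibroblasts cultured with fluconazole at 8 µg/mL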
[21] = fluconazole-exposed Candida albicans growth modulators – fluorescence, retest, confirmation (AID 2467); assay type: functional, cell-based
[22] = target: DNA (cytosine-5)-methyltransferase 1 (Homo sapiens, UniProt P26358); assay: inhibition of DNA methylation by DNMT1 – biochemical, fluorescent molecular beacon, confirmation (AID 602386); assay type: functional
DNA (cytosine-5)-methyltransferase 1, sequence (P26358 whole entry): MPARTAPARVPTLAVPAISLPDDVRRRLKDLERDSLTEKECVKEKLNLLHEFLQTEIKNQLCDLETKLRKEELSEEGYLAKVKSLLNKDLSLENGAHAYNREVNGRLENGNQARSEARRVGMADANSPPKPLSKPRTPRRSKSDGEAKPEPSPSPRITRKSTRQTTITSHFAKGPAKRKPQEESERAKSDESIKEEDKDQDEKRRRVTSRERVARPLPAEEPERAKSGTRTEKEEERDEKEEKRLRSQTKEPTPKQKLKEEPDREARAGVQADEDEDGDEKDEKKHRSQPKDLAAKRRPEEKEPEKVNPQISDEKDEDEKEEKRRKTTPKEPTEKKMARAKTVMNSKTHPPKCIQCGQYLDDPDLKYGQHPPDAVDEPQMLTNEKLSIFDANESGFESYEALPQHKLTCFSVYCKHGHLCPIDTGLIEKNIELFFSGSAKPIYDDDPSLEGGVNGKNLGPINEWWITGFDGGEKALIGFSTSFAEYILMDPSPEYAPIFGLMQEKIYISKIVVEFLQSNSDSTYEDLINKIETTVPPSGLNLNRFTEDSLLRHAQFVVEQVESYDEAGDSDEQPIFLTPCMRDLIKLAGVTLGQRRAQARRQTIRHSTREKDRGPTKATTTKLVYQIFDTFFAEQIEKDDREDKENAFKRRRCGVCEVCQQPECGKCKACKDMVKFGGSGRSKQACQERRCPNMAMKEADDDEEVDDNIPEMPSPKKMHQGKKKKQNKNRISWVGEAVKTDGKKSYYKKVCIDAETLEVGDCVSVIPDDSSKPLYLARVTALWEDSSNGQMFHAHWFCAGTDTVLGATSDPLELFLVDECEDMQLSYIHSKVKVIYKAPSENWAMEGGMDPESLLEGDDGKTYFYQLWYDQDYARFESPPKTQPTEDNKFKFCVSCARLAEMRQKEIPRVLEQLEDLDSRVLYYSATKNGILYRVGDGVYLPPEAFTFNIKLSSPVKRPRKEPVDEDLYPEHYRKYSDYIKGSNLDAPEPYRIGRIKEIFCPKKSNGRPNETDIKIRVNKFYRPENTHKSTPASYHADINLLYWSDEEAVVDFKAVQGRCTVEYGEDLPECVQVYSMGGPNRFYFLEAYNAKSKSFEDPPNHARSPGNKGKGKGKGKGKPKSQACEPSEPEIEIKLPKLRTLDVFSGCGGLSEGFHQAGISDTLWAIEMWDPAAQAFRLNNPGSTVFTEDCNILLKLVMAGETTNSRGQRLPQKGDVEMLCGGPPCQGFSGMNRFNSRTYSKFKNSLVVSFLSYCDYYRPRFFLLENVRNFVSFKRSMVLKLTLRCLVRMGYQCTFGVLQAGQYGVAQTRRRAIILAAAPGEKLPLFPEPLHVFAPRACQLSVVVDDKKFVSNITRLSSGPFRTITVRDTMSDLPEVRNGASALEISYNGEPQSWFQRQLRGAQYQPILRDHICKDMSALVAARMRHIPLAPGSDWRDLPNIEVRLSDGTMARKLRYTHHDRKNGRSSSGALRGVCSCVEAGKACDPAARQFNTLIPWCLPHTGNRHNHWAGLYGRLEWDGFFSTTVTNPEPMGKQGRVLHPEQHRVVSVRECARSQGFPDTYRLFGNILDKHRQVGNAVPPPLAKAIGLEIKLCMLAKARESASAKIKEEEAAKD

Albumin, sequence (P02769 whole entry): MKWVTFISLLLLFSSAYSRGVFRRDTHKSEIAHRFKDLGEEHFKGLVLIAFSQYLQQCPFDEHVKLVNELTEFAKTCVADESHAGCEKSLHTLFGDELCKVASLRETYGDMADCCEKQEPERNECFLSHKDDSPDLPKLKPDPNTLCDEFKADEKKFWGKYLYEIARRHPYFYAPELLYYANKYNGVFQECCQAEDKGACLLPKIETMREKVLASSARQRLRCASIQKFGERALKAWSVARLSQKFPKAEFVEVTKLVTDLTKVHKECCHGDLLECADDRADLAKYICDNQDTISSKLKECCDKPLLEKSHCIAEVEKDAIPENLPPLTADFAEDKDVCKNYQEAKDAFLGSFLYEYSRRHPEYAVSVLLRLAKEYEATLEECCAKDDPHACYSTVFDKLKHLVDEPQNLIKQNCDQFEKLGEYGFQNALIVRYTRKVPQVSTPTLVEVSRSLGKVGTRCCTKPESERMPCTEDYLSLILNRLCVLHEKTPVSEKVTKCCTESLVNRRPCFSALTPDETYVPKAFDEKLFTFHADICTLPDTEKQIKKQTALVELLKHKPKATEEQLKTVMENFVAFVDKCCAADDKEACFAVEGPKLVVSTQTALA
SWI/SNF-related matrix-associated actin-dependent regulator of chromatin subfamily A member 2, sequence (P51531 whole entry): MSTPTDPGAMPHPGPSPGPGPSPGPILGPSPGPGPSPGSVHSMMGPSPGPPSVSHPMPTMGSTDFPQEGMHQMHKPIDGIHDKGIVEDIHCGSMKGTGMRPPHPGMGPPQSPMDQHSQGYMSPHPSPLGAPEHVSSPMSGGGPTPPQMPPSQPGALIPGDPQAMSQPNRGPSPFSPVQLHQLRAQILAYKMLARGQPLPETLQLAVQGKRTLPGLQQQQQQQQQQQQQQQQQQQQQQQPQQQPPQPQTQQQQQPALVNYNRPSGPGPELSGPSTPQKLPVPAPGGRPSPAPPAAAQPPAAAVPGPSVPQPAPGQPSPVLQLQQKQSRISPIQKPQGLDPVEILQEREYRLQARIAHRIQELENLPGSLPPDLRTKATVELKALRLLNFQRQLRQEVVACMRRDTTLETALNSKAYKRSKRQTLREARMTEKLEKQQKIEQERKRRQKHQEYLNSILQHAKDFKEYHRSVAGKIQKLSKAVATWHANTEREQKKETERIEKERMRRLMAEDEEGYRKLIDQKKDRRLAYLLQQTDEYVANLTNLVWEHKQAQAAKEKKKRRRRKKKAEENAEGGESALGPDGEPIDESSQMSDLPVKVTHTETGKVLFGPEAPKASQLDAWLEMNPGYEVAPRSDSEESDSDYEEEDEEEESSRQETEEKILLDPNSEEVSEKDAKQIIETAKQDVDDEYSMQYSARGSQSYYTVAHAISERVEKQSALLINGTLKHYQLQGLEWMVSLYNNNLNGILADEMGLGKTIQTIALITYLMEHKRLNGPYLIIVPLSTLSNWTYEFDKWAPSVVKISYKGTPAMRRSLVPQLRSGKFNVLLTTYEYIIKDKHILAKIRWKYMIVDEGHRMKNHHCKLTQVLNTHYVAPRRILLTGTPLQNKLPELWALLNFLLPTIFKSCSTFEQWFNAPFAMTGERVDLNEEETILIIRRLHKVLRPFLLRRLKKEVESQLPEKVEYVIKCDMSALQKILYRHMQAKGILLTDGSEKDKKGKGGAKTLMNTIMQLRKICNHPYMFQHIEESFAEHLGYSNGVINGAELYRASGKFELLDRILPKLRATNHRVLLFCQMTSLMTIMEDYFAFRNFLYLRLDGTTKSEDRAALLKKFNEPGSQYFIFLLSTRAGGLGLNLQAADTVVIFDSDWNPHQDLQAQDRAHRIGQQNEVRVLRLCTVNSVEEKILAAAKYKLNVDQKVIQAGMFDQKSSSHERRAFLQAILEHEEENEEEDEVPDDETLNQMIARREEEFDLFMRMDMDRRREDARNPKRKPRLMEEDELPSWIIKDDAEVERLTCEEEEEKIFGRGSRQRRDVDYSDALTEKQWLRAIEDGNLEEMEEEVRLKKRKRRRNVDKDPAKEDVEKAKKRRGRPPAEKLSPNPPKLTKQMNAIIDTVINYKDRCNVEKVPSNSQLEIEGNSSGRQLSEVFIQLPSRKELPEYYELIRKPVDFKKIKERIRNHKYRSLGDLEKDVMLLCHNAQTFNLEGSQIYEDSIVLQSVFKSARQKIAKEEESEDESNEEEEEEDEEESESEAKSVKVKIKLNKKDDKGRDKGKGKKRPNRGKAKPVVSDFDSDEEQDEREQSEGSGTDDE

Q: For O=C(Nc1ccc(OC(F)F)cc1)Nc1cccc(C(F)(F)F)c1, which EC50 (Streptococcus) is on record?
A: The EC50 was 44.9 µM (active).

Q: What about the AC50 [1] of the same compound?
A: Its AC50 is 5.35 µM (active).

Q: What about the AC50 [2] of the same compound?
A: Its AC50 is 6.99 µM (active).

Q: And the IC50 (HEK293 [3])?
A: Its IC50 is 6.17 µM (active).

Q: What about the AC50 [4] of the same compound?
A: Its AC50 is 32 µM (active).

Q: What about the AC50 [5] of the same compound?
A: The AC50 was 10.9 µM (active).

Q: What about the AC50 [6] of the same compound?
A: The AC50 was 10.5 µM (active).

Q: What about the EC50 (Streptokinase A) of the same compound?
A: The EC50 was > 150 µM (not active).

Q: What about the AC50 [7] of the same compound?
A: The AC50 was 5.03 µM (active).

Q: And the AC50 (INS1)?
A: The AC50 was 6.07 µM (active).

Q: And the EC50 (HEK293 [8])?
A: The EC50 was 8.15 µM (active).

Q: And the IC50 (HEK293 [9])?
A: Its IC50 is 4.14 µM (inactive).

Q: And the IC50 (HEK293 [10])?
A: The IC50 was 3.04 µM (active).

Q: What about the AC50 [11] of the same compound?
A: Its AC50 is 11 µM (active).

Q: What about the AC50 [12] of the same compound?
A: Its AC50 is 16.1 µM (active).

Q: What about the EC50 [13] of the same compound?
A: Its EC50 is 13.3 µM (active).

Q: For Cc1cccc(-c2ccc([C@@H]3[C@H](CO)N4CCCCN(CCC(F)(F)F)C[C@@H]34)cc2)c1, which AC50 [14] is on record?
A: The AC50 was 10.7 µM (active).

Q: And the AC50 [2]?
A: The AC50 was 17.7 µM (active).

Q: And the AC50 [4]?
A: The AC50 was 14.9 µM (active).

Q: And the AC50 [5]?
A: Its AC50 is 28.8 µM (active).

Q: And the AC50 [15]?
A: Its AC50 is 0.978 µM (active).

Q: For COc1ccccc1NS(=O)(=O)c1cc(NC(=O)/C=C/c2cccs2)ccc1N1CCOCC1, which EC50 [16] is on record?
A: Its EC50 is > 91.2 µM (inactive).

Q: What about the EC50 [17] of the same compound?
A: Its EC50 is > 91.2 µM (inactive).

Q: Which AC50 [1] does the source give for Cc1ccc2c(C)nc(Nc3nc(O)cc(CSc4nnnn4-c4ccccc4)n3)nc2c1 here?
A: Its AC50 is 12.5 µM (active).

Q: What about the AC50 [6] of the same compound?
A: Its AC50 is 25.3 µM (active).

Q: What about the AC50 [7] of the same compound?
A: The AC50 was 20.5 µM (active).

Q: And the AC50 [12]?
A: Its AC50 is 25.2 µM (active).

Q: With O=C(CN1C(=O)S/C(=C\c2cccs2)C1=O)Nc1ccc(O)cc1C(=O)O as the compound, how does the AC50 [18] read?
A: Its AC50 is 94.3 µM (active).

Q: Which IC50 (cells) does the source give for COc1ccc(C(=O)NCCS(=O)(=O)NCCc2ccccc2)cc1 here?
A: Its IC50 is > 67.5 µM (inactive).

Q: What about the IC50 [19] of the same compound?
A: The IC50 was > 67.5 µM (inactive).

Q: With Cc1ccc(S(=O)(=O)N2[C@@H](c3cccc(Cl)c3)C(C(=O)O)=CC[C@H]2c2cccc(C)c2)cc1 as the compound, how does the AC50 [18] read?
A: Its AC50 is 48.3 µM (active).

Q: With O=C(NNC(=S)NC(=O)c1cccnc1)c1ccc(F)cc1 as the compound, how does the IC50 (Albumin) read?
A: The IC50 was > 94.1 µM (inactive).

Q: What does the source list for COc1cccc(C(=O)NNC(=O)c2ccc3ccccc3c2O)c1?
A: IC50 (Albumin): > 94.1 µM (inactive); EC50 [20]: > 150 µM (inconclusive); EC50 [21]: > 38 µM (not active)

Q: Which results are given for COc1cc2cc(Oc3ccc4ccc(=O)oc4c3)c(=O)oc2cc1O[C@@H]1O[C@H](CO)[C@@H](O)[C@H](O)[C@H]1O [DAPHNORIN]?
A: AC50 [18]: 87.2 µM (active); IC50 [22]: 7.56 µM (active)

Q: Which IC50 (cells) does the source give for CCOC(=O)NC1CCc2cc(OC)c(OC)c(OC)c2-c2ccc(SC)c(=O)cc21 (centres undefined) here?
A: The IC50 was > 67.5 µM (inactive).

Q: What about the IC50 [19] of the same compound?
A: The IC50 was > 0.0309 µM (active).

Q: Which AC50 [1] does the source give for C[C@H](CO)N1C[C@H](C)[C@H](CN(C)S(=O)(=O)c2ccccc2)Oc2ccc(NC(=O)NC3CCCCC3)cc2CC1=O here?
A: Its AC50 is 0.98 µM (active).

Q: What about the AC50 [6] of the same compound?
A: Its AC50 is 2.01 µM (active).

Q: What about the AC50 [7] of the same compound?
A: Its AC50 is 1.59 µM (active).

Q: And the AC50 [11]?
A: The AC50 was 4.13 µM (active).

Q: And the AC50 [12]?
A: The AC50 was 46.9 µM (active).
